Measured values from US12344610B2, “APOL1 inhibitors and methods of use” (Maze Therapeutics, Inc., priority 2022, dated 2025).
Where two headings read alike, the source gives them in different places.

How the values were obtained:
Type in all cases: cell-based
[1] = tested on: Trypanosoma brucei Lister 427 VSG221 with APOL1 G2 recombinant protein; assay: APOL1 G2 trypanosome cell rescue assay (Example B5); conditions: geometric mean of at least 2 assay runs, † = single assay run
Protocol: (§1) APOL1 G0/G1/G2 viability assay for measurement of cytotoxicity reversal by compound in trypanosomes (APOL1 G0/G1/G2 trypanosome cell rescue assay).
(§2) APOL1 protein expression and purification. The mature from of APOL1 proteins, residues 28-398, were expressed from a pET28a vector with an N-terminal His-tag and TEV cleavage site. Proteins were expressed in Escherichia coli BL21-CodonPlus (DE3)-RIPL cells. Liter cultures of terrific broth were grown at 37° C. until an OD600 of ˜0.8 was reached and then induced with isopropyl β-D-1-thiogalactopyranoside (IPTG; final concentration of 500 μM). Afterwards, cultures were grown for 3 hours at 37° C. For protein purification, cell pellets were resuspended in lysis buffer (50 mM Tris, pH 8.5, 5 mM EDTA, 0.5 mM DTT, 0.5 mM PMSF) supplemented with a cocktail of protease inhibitors. Cells were lysed by sonication, centrifuged, and the resulting pellet was collected. The homogenized pellet was resuspended in wash buffer (50 mM Tris, pH 8.5, 0.5 M NaCl, 5 mM EDTA, 0.5 mM DTT, 0.5 mM PMSF, protease inhibitor cocktail) and collected by centrifugation. Inclusion body dissolution was then conducted as previously reported (PNAS 112(9) (2015) 2894-2899; www.pnas.org/cgi/doi/10.1073/pnas.1421953112; herein incorporated by reference in its entirety). The solubilized APOL1 protein was applied to a nickel column (HisTrap, GE Life Sciences) preequilibrated in buffer A (50 mM Tris, pH 8.5, 0.15 M NaCl, 1% zwittergent 3-14, protease inhibitor cocktail). The resin was washed with buffer B (50 mM Tris, pH 8.5, 0.15 M NaCl, 0.1% DDM) and TEV cleavage was conducted on column overnight. Afterwards, the column was washed with buffer B, followed by His-washing buffer (50 mM Tris, pH 8.5, 0.15 M NaCl, 0.1% DDM, 10 mM imidazole). The protein was then removed from the resin using His-elution buffer (50 mM Tris, pH 8.5, 0.15 M NaCl, 0.1% DDM, 250 mM imidazole). The sample was further purified by size exclusion chromatography using a Superdex 200 Increase column (GE Life Sciences) in 50 mM Tris, pH 8.5, 0.15 M NaCl, and 0.1% DDM buffer. All APOL1 proteins (G0, G1, and G2) were generated at Viva Biotech (Shanghai) Ltd.
(§3) Modified HMI-9 media preparation (https://tryps.rockefeller.edu/trypsru2_culture_media_preparation.html; herein incorporated by reference in its entirety). Trypanosomes were cultured in modified HMI-9 media consisting of IMDM (ThermoFisher, 12440053), 10% heat-inactivated FBS (Gibco, 10082-147), 10% Serum Plus (Sigma-Aldrich, 14008C), 1×HMI-9 supplement stock, and 1% hypoxanthine stock. The 10×HMI-9 supplement stock was made by dissolving 280 mg bathocuproine disulfonic acid (Sigma-Aldrich, 146625), 1820 mg cysteine (add after bathocuproine) (Sigma-Aldrich, 30089), 1100 mg pyruvic acid (Sigma-Aldrich, 107360), 100 mg uracil (Sigma-Aldrich, U0750), 100 mg cytosine (Sigma-Aldrich, C3506) and 140 μL 2-mercaptoethanol (Sigma-Aldrich, M3148) in 1000 mL of water. The resulting solution was aliquoted and stored at −20° C. The hypoxanthine stock was made by dissolving 4 g of NaOH into 1000 mL of water. Afterwards, 13.6 g hypoxanthine (Sigma-Aldrich, H9377) was added to this mixture. The resulting solution was aliquoted and stored at −20° C.
(§4) Assay Setup. Trypanosoma brucei Lister 427 VSG221 (ATCC, PRA-382) cells were cultured in modified HMI-9 media. All experiments were performed in 384-well, white, solid bottom, tissue culture treated plates (Greiner, 781080). Assay ready plates were generated with duplicate 11-point compound dilution series that consisted of 2-fold stepwise dilutions (0.4% DMSO final). To each well, was added 20 μL of 2 μg/mL of APOL1 G0, G1, or G2 recombinant protein in modified HMI-9 media using a MultiDrop Combi (final APOL1 protein concentration=[…]). Trypanosomes were counted using a hemacytometer and diluted in modified HMI-9 media to a concentration of 1.25×10^4 cell/mL. […]

[2] = tested on: Trypanosoma brucei Lister 427 VSG221 with APOL1 G1 recombinant protein; assay: APOL1 G1 trypanosome cell rescue assay (Example B5); conditions: geometric mean of at least 2 assay runs, † = single assay run
Protocol: as §1, §2, §3, §4

[3] = tested on: HEK293 cells overexpressing APOL1 G2; assay: APOL1 G2 HEK293 cell rescue assay (reversal of cell death caused by overexpression of APOL1); conditions: geometric mean of at least 2 assay runs, † = single assay run
In short: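 Each compound tested in duplicate wells on one plate per run, with values usually the geometric mean across at least two runs on different days, occasionally from one run only. Read-out: concentration giving half-maximal rescue of APOL1 G2 overexpression-induced death of HEK293 cells.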

[4] = tested on: HEK293 clonal cell line overexpressing APOL1 G1; assay: APOL1 G1 HEK293 cell rescue assay (Example B3); conditions: geometric mean of at least 2 runs, † = single run, ¥ = concentration at 50% rescue estimated (no sigmoidal curve)
In short: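 Rescue of cell death caused by APOL1 G1 overexpression was measured in a clonal HEK293 line. Compounds were tested in duplicate on one plate, and EC50s were geometric means across at least two runs on different days. Some values are estimated 50%-rescue concentrations where curve fitting failed.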

[5] = tested on: Trypanosoma brucei Lister 427 VSG221 with APOL1 G0 recombinant protein; assay: APOL1 G0 trypanosome cell rescue assay (Example B5); conditions: geometric mean of at least 2 assay runs, † = single assay run
Protocol: as §1, §2, §3, §4

[6] = Trypanosoma brucei, 20 h, read-out: APOL1 G2 Trypanosome Rescue EC50, Trypanosoma brucei Lister 427 VSG221 with APOL1 G2 recombinant protein, 20 hours, CellTiter-Glo
[7] = Trypanosoma brucei, 20 h, read-out: APOL1 G1 Trypanosome Rescue EC50, Trypanosoma brucei Lister 427 VSG221 with APOL1 G1 recombinant protein, 20 hours, CellTiter-Glo
[8] = Homo sapiens, HEK293, HEK293 overexpressing APOL1 G2
[9] = Homo sapiens, HEK293, HEK293 clonal line overexpressing APOL1 G1
[10] = Trypanosoma brucei, 20 h, read-out: APOL1 G0 Trypanosome Rescue EC50, Trypanosoma brucei Lister 427 VSG221 with APOL1 G0 recombinant protein, 20 hours, CellTiter-Glo

Row | SMILES | EC50 [1, 6] [nM] | EC50 [2, 7] [nM] | EC50 [3, 8] [nM] | EC50 [4, 9] [nM] | EC50 [5, 10] [nM] | EC50 ([1]; read-out: APOL1 G2 Trypanosome Rescue EC50, Trypanosoma brucei Lister 427 VSG221 with APOL1 G2 recombinant protein, 20 hours, CellTiter-Glo) [nM] | EC50 ([2]; read-out: APOL1 G1 Trypanosome Rescue EC50, Trypanosoma brucei Lister 427 VSG221 with APOL1 G1 recombinant protein, 20 hours, CellTiter-Glo) [nM] | EC50 ([3]; HEK293 overexpressing APOL1 G2) [nM] | EC50 ([4]; HEK293 clonal line overexpressing APOL1 G1) [nM] | EC50 ([5]; read-out: APOL1 G0 Trypanosome Rescue EC50, Trypanosoma brucei Lister 427 VSG221 with APOL1 G0 recombinant protein, 20 hours, CellTiter-Glo) [nM]
1 | O=C1CCc2cc(OCCN3CCC4(CC3)C(=O)Nc3ccc(Cl)cc34)cnc2N1[C@H]1C[C@@H](O)C1 [Compound 190, 5-chloro-1′-[2-({7-oxo-8-[(cis)-3-hydroxycyclobutyl]-5,6,7,8-tetrahydro-1,8-naphthyridin-3-yl}oxy)ethyl]-1,2-dihydrospiro[indole-3,4′-piperidin]-2-one] | 35.7 | 104 | 54.7 | 105 | 92.1 | – | – | – | – | –
2 | O=C(NC1CCS(=O)(=O)C1)c1ccc(OCCN2CCC3(CC2)C(=O)Nc2ccc(Cl)cc23)cc1F (stereo not shown) [Compound 241, 4-(2-{5-chloro-2-oxo-1,2-dihydrospiro[indole-3,4′-piperidin]-1′-yl}ethoxy)-N-(1,1-dioxo-1λ^6-thiolan-3-yl)-2-fluorobenzamide] | 63.3 | 258 | 72.1 | 217 | 177 | – | – | – | – | –
3 | CS(=O)(=O)C1(c2ccc(OCCN3CCC4(CC3)C(=O)Nc3ccc(Cl)cc34)cc2)CC(O)C1 (stereo not shown) [Compound 268, 5-chloro-1′-{2-[4-(3-hydroxy-1-methanesulfonylcyclobutyl)phenoxy]ethyl}-1,2-dihydrospiro[indole-3,4′-piperidin]-2-one] | – | – | – | – | – | 32.7 | 121 | 53.4 | 211 | 108
4 | O=C(c1ccc(OCCN2CCC3(CC2)C(=O)N(CCO)c2ccc(Cl)cc23)cc1C(F)(F)F)N1CCS(=O)(=O)CC1 [Compound 271, 4-(4-{2-[5-chloro-1-(2-hydroxyethyl)-2-oxo-1,2-dihydrospiro[indole-3,4′-piperidin]-1′-yl]ethoxy}-2-(trifluoromethyl)benzoyl)-1λ^6-thiomorpholine-1,1-dione] | 15.9 | 50.7 | 152 | 340 | 51 | – | – | – | – | –
5 | CC(=O)c1ncc(OCCN2CCC3(CC2)C(=O)Nc2ccc(Cl)cc23)cc1C(F)(F)F [Compound 294, 1′-(2-{[6-acetyl-5-(trifluoromethyl)pyridin-3-yl]oxy}ethyl)-5-chloro-1,2-dihydrospiro[indole-3,4′-piperidin]-2-one] | 21.4 | 89 | 23.3 | 65.6 | 61.9 | – | – | – | – | –
6 | CC(=O)c1ncc(OCCN2CCC3(CC2)C(=O)Nc2ccc(C(F)F)cc23)cc1C(F)(F)F [Compound 295, 1′-(2-{[6-acetyl-5-(trifluoromethyl)pyridin-3-yl]oxy}ethyl)-5-(difluoromethyl)-1,2-dihydrospiro[indole-3,4′-piperidin]-2-one] | 11.1 | 40.2 | 43.6 | 112 | 32.6 | – | – | – | – | –
7 | CC(=O)c1ncc(OCCN2CCC3(CC2)C(=O)Nc2ccc(C#N)cc23)cc1C(F)(F)F [Compound 298, 1′-(2-{[6-acetyl-5-(trifluoromethyl)pyridin-3-yl]oxy}ethyl)-2-oxo-1,2-dihydrospiro[indole-3,4′-piperidine]-5-carbonitrile] | 56.6 | 156 | 81.8 | 218 | 119 | – | – | – | – | –
8 | O=C1Nc2ccc(Cl)cc2C12CCN(CCOc1cnc(C3(O)CC3)nc1)CC2 [Compound 308, 5-chloro-1′-(2-{[2-(1-hydroxycyclopropyl)pyrimidin-5-yl]oxy}ethyl)-1,2-dihydrospiro[indole-3,4′-piperidin]-2-one] | 150 | 435 | 112 | 196 | 335 | – | – | – | – | –
9 | C[C@]1(O)C[C@@H](N2C(=O)CCc3cc(OCCN4CCC5(CC4)C(=O)Nc4c(I)cc(Cl)cc45)cnc32)C1 [Compound 329, 5-chloro-7-iodo-1′-[2-({7-oxo-8-[(cis)-3-hydroxy-3-methylcyclobutyl]-5,6,7,8-tetrahydro-1,8-naphthyridin-3-yl}oxy)ethyl]-1,2-dihydrospiro[indole-3,4′-piperidin]-2-one] | 67.3 | 240 | 56.9 | 96.1 | 199 | – | – | – | – | –
10 | CC1(O)CN(c2ncnc3cc(OCCN4CCC5(CC4)C(=O)Nc4ccc(Cl)cc45)cnc23)C1 [Compound 364, 5-chloro-1′-(2-{[4-(3-hydroxy-3-methylazetidin-1-yl)pyrido[3,2-d]pyrimidin-7-yl]oxy}ethyl)-1,2-dihydrospiro[indole-3,4′-piperidin]-2-one] | 92.3 | 203 | 112 | 239 | 155 | – | – | – | – | –
11 | O=C1Nc2ccc(Cl)cc2C12CCN(CCOc1cnc3c(N4CC(O)C4)ncnc3c1)CC2 [Compound 366, 5-chloro-1′-(2-{[4-(3-hydroxyazetidin-1-yl)pyrido[3,2-d]pyrimidin-7-yl]oxy}ethyl)-1,2-dihydrospiro[indole-3,4′-piperidin]-2-one] | 32.4 | 87.3 | 80 | 136 | 66.4 | – | – | – | – | –
